Laboratory results as given in patent US7067515B2, “Quinuclidines-substituted-multi-cyclic-heteroaryls for the treatment of disease” (Pfizer Inc., priority 2001, dated 2006).
Where a name gives a salt, the structure may show the parent alone.

Biological target: T1, α7 nAChR (Rattus norvegicus, UniProt Q05941)
T1 construct: brains (whole brain minus cerebellum) are dissected quickly, weighed and homogenized; from tissue; host or cells: rat brain (whole brain minus cerebellum) membrane homogenate
T1 sequence (Q05941 23-502): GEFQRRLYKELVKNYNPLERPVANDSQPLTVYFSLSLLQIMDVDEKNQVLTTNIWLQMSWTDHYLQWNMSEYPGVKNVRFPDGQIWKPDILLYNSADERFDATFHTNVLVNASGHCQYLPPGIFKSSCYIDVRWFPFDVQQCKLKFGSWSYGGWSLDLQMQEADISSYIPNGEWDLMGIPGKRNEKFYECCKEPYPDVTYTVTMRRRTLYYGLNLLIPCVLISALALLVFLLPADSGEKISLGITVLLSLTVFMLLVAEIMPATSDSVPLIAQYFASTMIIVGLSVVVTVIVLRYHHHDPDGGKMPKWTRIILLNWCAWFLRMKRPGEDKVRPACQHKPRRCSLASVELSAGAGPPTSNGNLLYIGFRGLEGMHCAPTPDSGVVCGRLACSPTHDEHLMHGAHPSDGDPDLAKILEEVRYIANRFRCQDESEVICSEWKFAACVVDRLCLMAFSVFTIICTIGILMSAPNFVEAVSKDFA
Assay: [3H]-MLA competition binding assay in rat brain membranes
Settings: not given
Protocol: Materials and Methods for Identifying Binding Constants:
Membrane Preparation. Male Sprague-Dawley rats (300–350 g) are sacrificed by decapitation and the brains (whole brain minus cerebellum) are dissected quickly, weighed and homogenized in 9 volumes/g wet weight of ice-cold 0.32M sucrose using a rotating pestle on setting 50 (10 up and down strokes). The homogenate is centrifuged at 1,000×g for 10 minutes at 4° C. The supernatant is collected and centrifuged at 20,000×g for 20 minutes at 4° C. The resulting pellet is resuspended to a protein concentration of 1–8 mg/mL. Aliquots of 5 mL homogenate are frozen at −80° C. until needed for the assay. On the day of the assay, aliquots are thawed at room temperature and diluted with Kreb's—20 mM Hepes buffer pH 7.0 (at room temperature) containing 4.16 mM NaHCO3, 0.44 mM KH2PO4, 127 mM NaCl, 5.36 mM KCl, 1.26 mM CaCl2, and 0.98 mM MgCl2, so that 25–150 μg protein are added per test tube. Proteins are determined by the Bradford method (Bradford, M. M., Anal. Biochem., 72, 248–254, 1976) using bovine serum albumin as the standard.
Binding Assay. For saturation studies, 0.4 mL homogenate are added to test tubes containing buffer and various concentrations of radioligand, and are incubated in a final volume of 0.5 mL for 1 hour at 25° C. Nonspecific binding was determined in tissues incubated in parallel in the presence of 1 μM MLA, added before the radioligand. In competition studies, drugs are added in increasing concentrations to the test tubes before addition of approximately 3.0 to 4.0 nM [^3H]-MLA. The incubations are terminated by rapid vacuum filtration through Whatman GF/B glass filter paper mounted on a 48 well Brandel cell harvester. Filters are pre-soaked in 50 mM Tris HCl pH 7.0–0.05% polyethylenimine. The filters are rapidly washed two times with 5 mL aliquots of cold 0.9% saline and then counted for radioactivity by liquid scintillation spectrometry.
Data Analysis. In competition binding studies, the inhibition constant (Ki) was calculated from the concentration dependent inhibition of [^3H]-MLA binding obtained from non-linear regression fitting program according to the Cheng-Prusoff equation (Cheng, Y. C. and Prussoff, W. H., Biochem. Pharmacol., 22, p. 3099–3108, 1973). Hill coefficients were obtained using non-linear regression (GraphPad Prism sigmoidal dose-response with variable slope).

| Structure (SMILES) | Ki [nM] |
| --- | --- |
| O=C(N[C@H]1CN2CCC1CC2)c1cc2c(cn1)OCC2 [Example 1, N-[(3R)-1-azabicyclo[2.2.2]oct-3-yl]-2,3-dihydrofuro[2,3-c]pyridine-5-carboxamide dihydrochloride] | 50 to 60 |
| Cc1cc2cc(C(=O)N[C@H]3CN4CCC3CC4)ncc2o1 [Example 6, N-[(3R)-1-azabicyclo[2.2.2]oct-3-yl]-2-methylfuro[2,3-c]pyridine-5-carboxamide dihydrochloride] | 119 |
| Cc1coc2cnc(C(=O)N[C@H]3CN4CCC3CC4)cc12 [Example 9, N-[(3R)-1-azabicyclo[2.2.2]oct-3-yl]-3-methylfuro[2,3-c]pyridine-5-carboxamide] | 1 to 6 |
| O=C(N[C@H]1CN2CCC1CC2)c1cc2cccnc2s1 [Example 13, N-((3R)-1-azabicyclo[2.2.2]oct-3-yl)thieno[2,3-b]pyridine-2-carboxamide dihydrochloride] | 108 |
| O=C(N[C@H]1CN2CCC1CC2)c1cc2ccncc2s1 [Example 17, N-[(3R)-1-azabicyclo[2.2.2]oct-3-yl]thieno[2,3-c]pyridine-2-carboxamide dihydrochloride] | 65 |
| O=C(N[C@H]1CN2CCC1CC2)c1ccc2sccc2n1 [Example 19, N-[(3R)-1-azabicyclo[2.2.2]oct-3-yl]thieno[3,2-b]pyridine-5-carboxamide dihydrochloride] | 274 |
| O=C(N[C@H]1CN2CCC1CC2)c1cnc2ccsc2c1 [Example 20, N-[(3R)-1-azabicyclo[2.2.2]oct-3-yl]thieno[3,2-b]pyridine-6-carboxamide dihydrochloride] | 952 |
| O=C(N[C@H]1CN2CCC1CC2)c1cc2ccsc2cn1 [Example 22, N-[(3R)-1-azabicyclo[2.2.2]oct-3-yl]thieno[2,3-c]pyridine-5-carboxamide dihydrochloride] | 5 |
| O=C(N[C@H]1CN2CCC1CC2)c1cc2c(Cl)coc2cn1 [Example 28, N-[(3R)-1-Azabicyclo[2.2.2]oct-3-yl]-3-chlorofuro[2,3-c]pyridine-5-carboxamide dihydrochloride] | 3 |
| O=C(N[C@H]1CN2CCC1CC2)c1cc2c(Br)coc2cn1 [Example 29, N-[(3R)-1-Azabicyclo[2.2.2]oct-3-yl]-3-bromofuro[2,3-c]pyridine-5-carboxamide] | 4 |
| O=C(N[C@H]1CN2CCC1CC2)c1cc2occc2cn1 [Example 30, N-[(3R)-1-Azabicyclo[2.2.2]oct-3-yl]furo[3,2-c]pyridine-6-carboxamide dihydrochloride] | 45 |
| O=C(N[C@H]1CN2CCC1CC2)c1cc2c(Br)csc2cn1 [Example 31, N-[(3R)-1-azabicyclo[2.2.2]oct-3-yl]-3-bromothieno[2,3-c]pyridine-5-carboxamide] | 9 |
| C[C@H]1[C@H](NC(=O)c2cc3ccoc3cn2)C2CCN1CC2 [Example 33, N-[(2S,3R)-2-methyl-1-azabicyclo[2.2.2]oct-3-yl]furo[2,3-c]pyridine-5-carboxamide dihydrochloride] | 15 |
| Cc1coc2cnc(C(=O)N[C@@H]3C4CCN(CC4)[C@H]3C)cc12 [Example 34, 3-methyl-N-[(2S,3R)-2-methyl-1-azabicyclo[2.2.2]oct-3-yl]furo[2,3-c]pyridine-5-carboxamide dihydrochloride] | 15 |
| C[C@H]1[C@H](NC(=O)c2cc3ccsc3cn2)C2CCN1CC2 [Example 35, N-[(2S,3R)-2-methyl-1-azabicyclo[2.2.2]oct-3-yl]thieno[2,3-c]pyridine-5-carboxamide dihydrochloride] | 18 |
| C[C@H]1[C@H](NC(=O)c2cc3sccc3cn2)C2CCN1CC2 [Example 36, N-[(2S,3R)-2-methyl-1-azabicyclo[2.2.2]oct-3-yl]thieno[3,2-c]pyridine-6-carboxamide dihydrochloride] | 12 |
| O=C(N[C@H]1CN2CCC1CC2)c1cc2cscc2cn1 [Example 40, N-[(3R)-1-azabicyclo[2.2.2]oct-3-yl]thieno[3,4-c]pyridine-6-carboxamide methanesulfonate] | 25 |

Same assay, conditions: competition with approximately 3.0 to 4.0 nM [3H]-MLA, rat brain (whole brain minus cerebellum) homogenate, 1 hour at 25° C, Cheng-Prusoff; read-out: Ki Value

| Structure (SMILES) | Ki [nM] |
| --- | --- |
| O=C(N[C@H]1CN2CCC1CC2)c1cc2cnccc2o1 [Example 2, N-[(3R)-1-azabicyclo[2.2.2]oct-3-yl]furo[3,2-c]pyridine-2-carboxamide] | 1300 |
| O=C(N[C@H]1CN2CCC1CC2)c1cc2ccoc2c(Cl)n1 [Example 3, N-[(3R)-1-azabicyclo[2.2.2]oct-3-yl]-7-chlorofuro[2,3-c]pyridine-5-carboxamide hydrochloride] | 2250 |
| O=C(N[C@H]1CN2CCC1CC2)c1cc2ccoc2cn1 [Example 4, N-[(3R)-1-azabicyclo[2.2.2]oct-3-yl]furo[2,3-c]pyridine-5-carboxamide dihydrochloride] | 9 to 10 |
| O=C(N[C@H]1CN2CCC1CC2)c1cc2cnccc2s1 [Example 21, N-[(3R)-1-azabicyclo[2.2.2]oct-3-yl]thieno[3,2-c]pyridine-2-carboxamide dihydrochloride] | 269 |
| O=C(N[C@H]1CN2CCC1CC2)c1cc2sccc2cn1 [Example 23, N-[(3R)-1-azabicyclo[2.2.2]oct-3-yl]thieno[3,2-c]pyridine-6-carboxamide dihydrochloride] | 5 |
